The text below walks through data of ChEMBL document CHEMBL1135270, “New highly active taxoids from 9 beta-dihydrobaccatin-9,10-acetals” (2002).

The test system of assay [1] is PC-6. Nature of the assay: Growth inhibition of 50% of human small cell lung cancer (PC-6) cell line in MTT assay. It is filed as functional. On the technique in general: Tetrazolium dyes change colour on reduction, which living cells bring about.
The test system of assay [2] is PC-6. Nature of the assay: Growth inhibition of 50% of vincristine-resistant cell line expressing P-glycoprotein (PC-6/VCR) in MTT assay. The assay is classed as functional. Conditions: Homo sapiens.

A word on the GI50: it is the concentration giving 50% growth inhibition. Lower therefore signals more potent growth inhibition.

Values after ≈ are worked out from the molar mass of the structure shown.

Turning to `CC(=O)O[C@@]12CO[C@@H]1C[C@H](O)[C@@]1(C)[C@H](O)[C@H](O)C3=C(C)[C@@H](OC(=O)[C@H](O)[C@@H](NC(=O)OC(C)(C)C)c4ccco4)C[C@@](O)([C@@H](OC(=O)c4ccccc4)[C@H]21)C3(C)C`, the figures for the GI50 with PC-6 [1] and in the assay with PC-6 [2] were 21 ng/mL (≈ 26.3 nM) and 422 ng/mL (≈ 528 nM), respectively.

Regarding `CC(=O)O[C@@]12CO[C@@H]1C[C@H](O)[C@@]1(C)[C@@H]3OC(C)(C)O[C@@H]3C3=C(C)[C@@H](OC(=O)[C@H](O)[C@@H](NC(=O)OC(C)(C)C)c4ccco4)C[C@@](O)([C@@H](OC(=O)c4ccccc4)[C@H]21)C3(C)C`, the 50% growth inhibitory concentration (GI50) in the assay with PC-6 [1] was determined as 0.331 ng/mL (≈ 0.394 nM); in the assay with PC-6 [2] it was 1.88 ng/mL (≈ 2.24 nM).

Regarding `COc1ccc(C2O[C@@H]3C4=C(C)[C@@H](OC(=O)[C@H](O)[C@@H](NC(=O)OC(C)(C)C)c5ccco5)C[C@@](O)([C@@H](OC(=O)c5ccccc5)[C@@H]5[C@]6(OC(C)=O)CO[C@@H]6C[C@H](O)[C@@]5(C)[C@@H]3O2)C4(C)C)cc1` (stereo not given in full), the GI50 with PC-6 [1] came to 6.26 ng/mL (≈ 6.82 nM); in the assay with PC-6 [2] it was 9.25 ng/mL (≈ 10.1 nM).

With `C=CC1O[C@@H]2C3=C(C)[C@@H](OC(=O)[C@H](O)[C@@H](NC(=O)OC(C)(C)C)c4ccccc4)C[C@@](O)([C@@H](OC(=O)c4ccccc4)[C@@H]4[C@]5(OC(C)=O)CO[C@@H]5C[C@H](O)[C@@]4(C)[C@@H]2O1)C3(C)C` (stereo not given in full), the GI50 in the assay with PC-6 [1] worked out at 0.365 ng/mL (≈ 0.43 nM); in the assay on PC-6 [2], 4.64 ng/mL (≈ 5.47 nM).

With `C=CC1O[C@@H]2C3=C(C)[C@@H](OC(=O)[C@H](O)[C@@H](NC(=O)OC(C)(C)C)c4ccco4)C[C@@](O)([C@@H](OC(=O)c4ccccc4)[C@@H]4[C@]5(OC(C)=O)CO[C@@H]5C[C@H](O)[C@@]4(C)[C@@H]2O1)C3(C)C` (stereo not given in full), the values for the GI50 in the assay with PC-6 [1] and in the assay with PC-6 [2] were 0.743 ng/mL (≈ 0.887 nM) and 1.27 ng/mL (≈ 1.52 nM), respectively.
